Source: US20260008776A1 (HANGZHOU POLYMED BIOPHARMACEUTICALS, INC., priority 2023, published 2026)
Like-named read-outs stand apart in the source and are kept apart here.

Assays:
[1] = assay type: physicochemical
Experimental: The glass dishes or glass vials were then placed in different environments of the constant temperature and humidity chamber, with conditions including: illumination: 4500±500 Lux (open); high temperature: 60° C.

[2] = Solubility test of salts in pH buffers, water and physiological solutions; assay type: physicochemical
Experimental: The solubility of dominant salts in different pH buffers, water, and physiological solutions was determined. The specific steps for solubility determination are as follows: […] The vials were sealed, transferred to a magnetic stirrer, and maintained at 25° C. with a stirring rate of 500 rpm for 24 hours. The dissolution status in sample vials was recorded during the test. After 24 hours, approximately 1 mL of the suspension was filtered, and the filtrate was collected for solubility test via HPLC analysis. The pH value of the filtrate sample was measured using a pH meter.

[3] = DVS test of salt forms; assay type: physicochemical
From the text: 1. The instrument sample pan was first tared and balanced.
3. The program was run: starting from 0% humidity as the initial point, slowly increasing to 90%, then returning to 0% to complete the cycle 1; rising again to 90% and decreasing back to 0% to conclude, completing the cycle 2 (as shown in FIGS. 35-36).

[4] = Pharmacokinetic test in rats, oral gavage; assay type: in vivo, Sprague-Dawley rats
Experimental: (§1) Subsequently, 976 μL of Tween 80 was added and vortexed for 30 seconds, followed by the addition of 488 μL of Kolliphor HS15 (Kolliphor HS15 was used after heating and melting at 50° C.) and vortexed for 30 seconds. Finally, 7808 L of saline was added and vortexed for 30 seconds, followed by ultrasonication for 10 seconds to remove bubbles. The resulting administration preparation was a suspension.
as §1, with “1034” for “976”, “517” for “488”, “8270 μL” for “7808 L”
Species and Strain: Sprague-Dawley rats (SD rats) (Zhejiang Vital River Laboratory Animal Technology Co., Ltd.) • Animal Grade: SPF level
Planned initial body weight for administration: Male 200-250 g. Actual animal weights will be listed in the raw records. • Number and Gender of Animals: 3 (3 per group), male
Based on measured body weights, animals with similar weights were divided into groups of 3 animals each. Blank group animals were used for the collection of blank biological matrices.
• Administration route: Oral gavage • Administration volume: 10 mL/kg • Administration frequency: Single dose • Administration method: The test sample was administered orally via gavage using an appropriate syringe and gavage tube. When using a 2 mL or 5 mL syringe, the administration volume was recorded to one decimal place. When the minimum graduation value of the syringe was 0.2 mL and the administration volume was between two graduation marks, the higher volume was selected for administration.
Sample collection: Approximately 0.30 mL of whole blood was collected from the orbital vein of Group 1 animals at each time point.
The experimental animals were fasted for 12 hours before administration, with free access to water. Blood samples were collected from Group 1 animals (oral gavage group) at 5 min, 15 min, 30 min, 1 h, 2 h, 4 h, 6 h, 8 h, and 24 h after administration.
Sample processing: The collected venous blood was immediately transferred to EDTA-Na2-coated EP tubes (stored in a refrigerator or in an ice box with crushed ice at 2-8° C. prior to use), inverted at least 5 times for thorough mixing, and temporarily stored in an ice box with crushed ice. The collected whole blood was centrifuged at 2000 g for 10 min under 2-8° C. conditions within 2 h to separate plasma, which was then placed in newly labeled centrifuge tubes and stored at −20° C.
The pharmacokinetics group of the Department of Pharmacology and Toxicology conducted the analysis and measurement of all samples, followed by data summarization. Plasma concentration data were analyzed using the pharmacokinetic data analysis software WinNonlin. Non-compartmental analysis (NCA) was employed to calculate pharmacokinetic parameters such as t1/2, Cmax, Tmax, Vd, CL, AUC0-24, and F. The detailed results are shown in the following table: […]

[5] = High Relative Humidity (RH = 90 ± 5%, Open, 25° C.), 5 Days
[6] = High Relative Humidity (RH = 90 ± 5%, Open, 25° C.), 11 Days
[7] = High Temperature (60° C., Sealed), 5 Days
[8] = High Temperature (60° C., Sealed), 11 Days
[9] = Strong Illumination (Open), 5 Days
[10] = Strong Illumination (Open), 11 Days
[11] = rats, PO, 40 mpk, single dose, plasma

For `CC(C)(O)CCn1cc2cc(NC(=O)c3coc(-c4ccnc(C(F)(F)F)c4)n3)c(C(C)(C)O)cc2n1.Cl` [crystal form A of hydrochloride salt], which Solid-state stability evaluation [1] is on record?
The Solid-state stability evaluation was “good physical and chemical stability”.

What about the “Color Change” value [1, 5] of the same compound?
Its value is “No Change”.

What about the Purity [1, 5] of the same compound?
The Purity was 99.65%.

And the “Salt Type” value [1, 5]?
The value was “No Change”.

And the “Color Change” value [1, 6]?
The value was “No Change”.

What about the Purity [1, 6] of the same compound?
Its Purity is 99.79%.

And the “Salt Type” value [1, 6]?
Its value is “No Change”.

What about the “Color Change” value [1, 7] of the same compound?
The value was “No Change”.

And the Purity [1, 7]?
Its Purity is 99.64%.

And the “Salt Type” value [1, 7]?
Its value is “No Change”.

What about the “Color Change” value [1, 8] of the same compound?
The value was “No Change”.

What about the Purity [1, 8] of the same compound?
The Purity was 99.48%.

What about the “Salt Type” value [1, 8] of the same compound?
The value was “No Change”.

And the Purity ([1]; Initial State)?
Its Purity is 98.53%.

What about the “Color Change” value ([1]; Initial State (colour)) of the same compound?
The value was “White”.

And the “Color Change” value [1, 9]?
The value was “No Change”.

What about the Purity [1, 9] of the same compound?
Its Purity is 99.68%.

And the “Salt Type” value [1, 9]?
Its value is “No Change”.

And the “Color Change” value [1, 10]?
The value was “No Change”.

What about the Purity [1, 10] of the same compound?
Its Purity is 99.56%.

And the “Salt Type” value [1, 10]?
The value was “No Change”.

What about the “Solubility at 25° C.” value ([2]; Buffer pH = 1.0, 24 hours) of the same compound?
Its value is 172.73 µg/mL.

And the “Solubility at 25° C.” value ([2]; Buffer pH = 6.8, 24 hours)?
The value was “<LOD”.

What about the “Solubility at 25° C.” value ([2]; FaSSIF (pH = 6.5), 24 hours) of the same compound?
Its value is 2.09 µg/mL.

And the “Solubility at 25° C.” value ([2]; FeSSIF (pH = 5.0), 24 hours)?
Its value is 7.86 µg/mL.

What about the “Solubility at 25° C.” value ([2]; SGF (pH = 1.2), 24 hours) of the same compound?
The value was 2.20 µg/mL.

And the “Solubility at 25° C.” value ([2]; Water, 24 hours)?
The value was “<LOD”.

And the “Change of the sample before and after the DVS test” value [3]?
The value was “no changes are observed”.

And the “Hygroscopicity (DVS), in words” value ([3]; 0% to 90% humidity, two cycles)?
The value was “low hygroscopicity”.

And the “Water Sorption at 90% Relative Humidity” value ([3]; 90% Relative Humidity)?
The value was 0.42% Water Sorption at 90% Relative Humidity.

And the Desorption ([3]; cycle 1, 0% humidity)?
The Desorption was −0.06%.

And the Sorption ([3]; cycle 1, 0% humidity)?
The Sorption was 0.00%.

And the Desorption ([3]; cycle 1, 10% humidity)?
Its Desorption is −0.02%.

What about the Sorption ([3]; cycle 1, 10% humidity) of the same compound?
Its Sorption is −0.02%.

And the Desorption ([3]; cycle 1, 20% humidity)?
The Desorption was 0.01%.

What about the Sorption ([3]; cycle 1, 20% humidity) of the same compound?
Its Sorption is 0.00%.

What about the Desorption ([3]; cycle 1, 30% humidity) of the same compound?
Its Desorption is 0.04%.

And the Sorption ([3]; cycle 1, 30% humidity)?
The Sorption was 0.03%.

And the Desorption ([3]; cycle 1, 40% humidity)?
The Desorption was 0.07%.

What about the Sorption ([3]; cycle 1, 40% humidity) of the same compound?
Its Sorption is 0.06%.

And the Desorption ([3]; cycle 1, 50% humidity)?
The Desorption was 0.11%.

And the Sorption ([3]; cycle 1, 50% humidity)?
The Sorption was 0.09%.

What about the Desorption ([3]; cycle 1, 60% humidity) of the same compound?
The Desorption was 0.16%.

What about the Sorption ([3]; cycle 1, 60% humidity) of the same compound?
The Sorption was 0.13%.

What about the Desorption ([3]; cycle 1, 70% humidity) of the same compound?
The Desorption was 0.21%.

And the Sorption ([3]; cycle 1, 70% humidity)?
Its Sorption is 0.17%.

And the Desorption ([3]; cycle 1, 80% humidity)?
The Desorption was 0.30%.

What about the Sorption ([3]; cycle 1, 80% humidity) of the same compound?
Its Sorption is 0.28%.

And the Desorption ([3]; cycle 1, 90% humidity)?
Its Desorption is 0.42%.

What about the Sorption ([3]; cycle 1, 90% humidity) of the same compound?
The Sorption was 0.42%.

And the Desorption ([3]; cycle 2, 0% humidity)?
The Desorption was −0.05%.

And the Sorption ([3]; cycle 2, 0% humidity)?
The Sorption was −0.06%.

And the Desorption ([3]; cycle 2, 10% humidity)?
Its Desorption is −0.02%.

And the Sorption ([3]; cycle 2, 10% humidity)?
The Sorption was −0.03%.

And the Desorption ([3]; cycle 2, 20% humidity)?
The Desorption was 0.01%.

What about the Sorption ([3]; cycle 2, 20% humidity) of the same compound?
Its Sorption is 0.01%.

And the Desorption ([3]; cycle 2, 30% humidity)?
The Desorption was 0.05%.

And the Sorption ([3]; cycle 2, 30% humidity)?
Its Sorption is 0.03%.

What about the Desorption ([3]; cycle 2, 40% humidity) of the same compound?
The Desorption was 0.08%.

And the Sorption ([3]; cycle 2, 40% humidity)?
The Sorption was 0.07%.

And the Desorption ([3]; cycle 2, 50% humidity)?
Its Desorption is 0.12%.

And the Sorption ([3]; cycle 2, 50% humidity)?
The Sorption was 0.10%.

And the Desorption ([3]; cycle 2, 60% humidity)?
The Desorption was 0.17%.

What about the Sorption ([3]; cycle 2, 60% humidity) of the same compound?
Its Sorption is 0.14%.

And the Desorption ([3]; cycle 2, 70% humidity)?
The Desorption was 0.22%.

And the Sorption ([3]; cycle 2, 70% humidity)?
Its Sorption is 0.19%.

What about the Desorption ([3]; cycle 2, 80% humidity) of the same compound?
The Desorption was 0.32%.

And the Sorption ([3]; cycle 2, 80% humidity)?
The Sorption was 0.30%.

And the Desorption ([3]; cycle 2, 90% humidity)?
The Desorption was 0.45%.

And the Sorption ([3]; cycle 2, 90% humidity)?
The Sorption was 0.45%.

Which results are given for `CC(C)(O)CCn1cc2cc(NC(=O)c3coc(-c4ccnc(C(F)(F)F)c4)n3)c(C(C)(C)O)cc2n1.Cl` [hydrochloride salt]?
Plasma concentration and exposure compared with the free base ([4]; SD rats, single oral gavage, 4 mg/mL suspension, 10 mL/kg): significantly increase; AUC0-24 [4, 11]: 27508.69 ng·h/mL; Cmax [4, 11]: 5117.67 ng/mL
